Results: PubChem BioAssay (NCI)
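Method: 48-hour compound exposure of cells in 96-well plates, five concentrations, linear interpolation of endpoints. TGI denotes the concentration required for complete inhibition of growth.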

Experiments:
Assay in all cases: NCI-60 cell line screen, 48 h
A498 renal = system: A498 renal
BT-549 breast = system: BT-549 breast
IGROV1 ovarian = system: IGROV1 ovarian
786-0 renal = system: 786-0 renal
MDA-MB-231 breast = system: MDA-MB-231 breast
OVCAR-3 ovarian = system: OVCAR-3 ovarian
SF-539 CNS = system: SF-539 CNS
MDA-N = system: MDA-N
NCI-H522 lung = system: NCI-H522 lung
SK-MEL-2 melanoma = system: SK-MEL-2 melanoma
MOLT-4 leukemia = system: MOLT-4 leukemia
SK-MEL-5 melanoma = system: SK-MEL-5 melanoma
COLO 205 colon = system: COLO 205 colon
SN12C renal = system: SN12C renal
UACC-257 melanoma = system: UACC-257 melanoma
SF-295 CNS = system: SF-295 CNS
HOP-92 NSCLC = system: HOP-92 NSCLC
UO-31 renal = system: UO-31 renal
NCI/ADR-RES ovarian = system: NCI/ADR-RES ovarian
RXF 393 renal = system: RXF 393 renal

Compound	TGI (A498 renal) [µM]	TGI (BT-549 breast) [µM]	TGI (IGROV1 ovarian) [µM]	TGI (786-0 renal) [µM]	TGI (MDA-MB-231 breast) [µM]	TGI (OVCAR-3 ovarian) [µM]	TGI (SF-539 CNS) [µM]	TGI (MDA-N) [µM]	TGI (NCI-H522 lung) [µM]	TGI (SK-MEL-2 melanoma) [µM]	TGI (MOLT-4 leukemia) [µM]	TGI (SK-MEL-5 melanoma) [µM]	TGI (COLO 205 colon) [µM]	TGI (SN12C renal) [µM]	TGI (UACC-257 melanoma) [µM]	TGI (SF-295 CNS) [µM]	TGI (HOP-92 NSCLC) [µM]	TGI (UO-31 renal) [µM]	TGI (NCI/ADR-RES ovarian) [µM]	TGI (RXF 393 renal) [µM]
Cc1c(-c2ccc(O)cc2)n(CCCCCCNCCOC(=O)NCCCc2ccc(N(CCCl)CCCl)cc2)c2ccc(O)cc12	28.7	26.7	5.9	2.97	3.38	6.41	3.11	3.47	3.44	23.8	2.92	4.06	7.57	6.22	3.57	6.85				
CCCCS(=O)(=O)CCC(N)P(=O)(O)O (stereo not drawn)		> 100	> 100	> 100		> 100		> 100	> 100	> 100	> 100	> 100	> 100	> 100	> 100	> 100	> 100	> 100	> 100	
C/C(=C\CO)CC/C=C(\C)CNc1c(F)c(F)c(F)c(F)c1F		22.3	> 100	> 100	40.5	52.8	40.3		46.3	48.6	> 100	31.9	67.1	41.2	47.4	52.9		80.8	86.2	65.3
Cc1ccc(Nc2nc(=O)c3c4ccccc4n(C(=O)OC(C)(C)C)c3s2)cc1	> 100	56.5	> 100	38.5	> 100	55.7	79.8		59.3	59.2	> 100	27	> 100		> 100	65.6	> 100	22.8	32.5	
COc1cc2c(c(OC)c1O)-c1ccc(SC)c(=O)cc1C(NC(C)=O)CC2 (stereo not drawn)	30.9		> 100	> 100		0.0142				> 5.54	> 100	0.0361	0.0209	> 100	> 100	0.0868	> 100	> 100		> 100
COc1ccc(/C=c2/sc3n(c2=O)C(c2ccccc2)C2(O)CCCCC2N=3)cc1 (stereo not drawn)		> 12.5	> 12.5	> 12.5		> 12.5		> 12.5	> 12.5	> 12.5	> 12.5	> 12.5			> 12.5			> 12.5		
COC1(c2ccc(Cl)cc2)SC=C(C)n2c1noc2=O (stereo not drawn)	> 100	> 100	> 100	> 100		> 100		> 100	> 100		> 100	> 100	> 100	> 100	> 100	> 100	> 100	> 100	94.9	> 100
Cc1c2n(c(=O)[nH]c1=O)C1OC(CO)C(O2)C1N=[N+]=[N-] (stereo not drawn)	> 100		> 100	> 100		> 100	> 100		> 100	> 100	> 100	> 100	> 100	> 100	> 100	> 100	> 100	> 100		
N/C(=N\N=C/c1ccc(O)c(O)c1O)NO	> 100		> 100			51	> 100		52.9	> 69.8	> 66.6	45.1	17.6	34.9	> 100	> 40	> 100	> 100	40.3	33.5
Nc1ccccc1-c1noc(=O)[nH]1	> 100	> 100	> 100	> 100	> 100	> 100	> 100		> 100	> 100	> 100	> 100	> 100	> 100	> 100	> 100	> 100	> 100	> 100	> 100
CC(=O)Nc1oc(C)c(C)c1S(=O)(=O)c1ccc(Cl)cc1	> 100	89.3	> 100	> 100		> 100	> 100		> 100	85.6	> 100	76.6	> 100		> 100	> 100	> 100	> 100	> 100	> 100
C[n+]1c2ccccc2c(NCC(=O)O)c2ccccc21	> 100		> 100	> 100		> 100	> 100		> 100	> 100	> 100	> 100	> 100	> 100	> 100	> 100		> 100		> 100
S=C1NCCN1			> 100	> 100		> 100	> 100		> 100	> 100	> 100	> 100	> 100	> 100	> 100	> 100	> 100	> 100		
CC1(C)CCc2ccc(OCCC(=O)O)cc2O1			> 100			> 100	> 100		> 100	> 100	> 100	> 100	> 100	> 100		> 100	> 100	> 100		
O=[N+]([O-])c1cccc2nc3ccccc3c(NCCCCNc3c4ccccc4nc4cccc([N+](=O)[O-])c34)c12		1.79	2.2	0.0943		0.231	0.102		0.0639	> 100	0.0887	0.165	0.173	0.38	0.682	1.02	0.0854	0.398	2.71	0.117
CCCCCCNC(=O)C(C)C1CCC2(C)C=CC(=O)C(C)=C2C1O (stereo not drawn)	> 100		> 100			> 100	> 100		> 100	> 100	> 100	> 100	> 100	> 100	> 100	> 100	> 100	> 100	> 100	> 100
O=C1N(Cl)C(=O)C(c2ccc(Cl)cc2)(c2ccc(Cl)cc2)N1Cl	> 100		> 100	> 100		> 100	> 100		> 100	> 100	> 100	> 100	> 100	> 100		> 100	> 100	> 100		84.8
Cc1sc(Nc2ccc(Nc3nc(-c4ccccc4)c(C)s3)cc2)nc1-c1ccccc1	> 100	> 100	> 100	> 100	> 100	> 100	70.6		> 100	76.4	> 100	66.3	42.1	> 100	> 100	> 100	> 100	> 100	> 100	81.5
N#Cc1cccc2c1Sc1ccccc1N2	58.3	79.8	> 100	67.2	> 100	> 100	64.2				85.7	1.72	60.2	> 100	> 100	69.1	> 100	87.9	> 100	33.7
Cc1nnc2n1N=C(c1ccccc1)/C(=C/c1ccc(-c3ccc(Cl)cc3)o1)S2	31.4	32.2	36.6	27.2	33	23.9		34	24.7	27.5	23	27.2	41.5	35.7	36.2	49.9	32.6	26.5		26.7
CC1OC(OC2C(OC(=O)[C@]34CCC(C)(C)C[C@H]3C3=CC[C@@H]5[C@@]6(C)CC[C@H](OC7OC(C(=O)O)C(O)C(O)C7O)C(C)(C)[C@@H]6CC[C@@]5(C)[C@]3(C)C[C@H]4O)OCC(O)C2O)C(O)C(O)C1OC1OCC(OC2OCC(O)C(O)C2O)C(O)C1O (stereo partly drawn)	3.06	13	26.5	23.3	11.9	30			16.5	11.7	37.1	27.2	3.32	5.68	23	22.2	19.5	4.84	25.1	29
C/C=C/C(C#N)(/C=C/c1ccccc1)OP1(=O)OC(c2ccccc2)C(C)N1C (stereo not drawn)	35.6		32.8	31.7	34.9	35.5	35.1	39	42.2	35.9	28.8	32.1	32.1	35.5	35.1	31	31.6	32.6		38.5
CC(C)=C1C(=O)C[C@]2(C)C[C@H]3O[C@]3(C)CC[C@@H]3O[C@@]3(C)CC[C@@H]12	> 50	> 50	> 50	> 50	> 50	> 50	> 50		> 50	> 50	> 50		> 50	> 50	> 50	> 50	> 50	> 50	> 50	> 50
S=c1nc2sc3c(c2c(Nc2ccc(Cl)cc2)[nH]1)CCCC3	> 100	> 100	> 100	> 100	> 100	> 100		> 100	> 100	> 100	> 100	> 100	> 100	> 100	> 100	> 100	> 100	> 100		> 100
CC1=CC(=O)[C@@H](O)[C@]2(C)[C@H]3[C@@]4(O)OC[C@]35[C@H]([C@@H](C)[C@H]4O)[C@@H](OC(=O)C(C)(C)CO)C(=O)O[C@@H]5C[C@@H]12	5.39	0.423		4.83		1.92	< 0.0261	0.825	0.417	0.559		0.187	7	4.5		1.71		2.44	51.3	2.23
O=C1NC(N/N=C/c2ccccc2)=N/C1=C\c1ccco1	> 100	70.6	57.4	55.6	> 100	> 100			95.2	> 100	> 100	> 100	> 100	> 100	> 100	> 100	37.3	86	> 100	80.4
COc1ccc2c(c1)CC[C@@H]1[C@@H]2CC[C@]2(C)C(=O)/C(=C/c3ccc(N(C)C)cc3)C[C@@H]12	> 100	70.6		80.7	> 100	54.6	> 100			84.6	> 100	> 100	> 100			> 100	69	> 100	> 100	87.2
